The values below come from PubChem BioAssay (NCI).

The structures appear in SMILES notation.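 Five compound concentrations were applied to cells in 96-well plates for 48 hours; endpoints were derived by simple linear interpolation of the resulting dose-response curve. TGI: total growth inhibition.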 Bounds are passed on as bounds.

Among the test systems are EKVX NSCLC; HCT-15 colon; HL-60(TB) leukemia; KM12 colon; NCI-H460 lung; SF-295 CNS; SK-MEL-2 melanoma; SK-MEL-28 melanoma; SK-MEL-5 melanoma; SR leukemia; UACC-62 melanoma; MDA-N.
Common to all, as to assay: growth of human tumour cells (NCI), 48 h

For the compound `Nc1c(S(=O)(=O)c2ccccc2)c2nc3ccccc3nc2n2c1nc1ccccc12`, the TGI was greater than 100 µM in the test on EKVX NSCLC; greater than 100 µM in the test with HCT-15 colon; greater than 100 µM in the test with HL-60(TB) leukemia; greater than 100 µM with KM12 colon; greater than 100 µM in the test with NCI-H460 lung; greater than 53.4 µM with SF-295 CNS. Moreover, the TGI with SK-MEL-2 melanoma is greater than 100 µM; in the test with SK-MEL-28 melanoma it was greater than 62.3 µM; in the test on SK-MEL-5 melanoma, greater than 66.2 µM; in the test with SR leukemia it was greater than 100 µM; in the test on UACC-62 melanoma, greater than 100 µM.

For `Cc1ccc(NC(=O)C(=O)C2C(=O)NC(=O)NC2=O)cc1C`, the TGI with EKVX NSCLC, in the test with HCT-15 colon, in the test on HL-60(TB) leukemia, with KM12 colon, in the test on NCI-H460 lung and in the test on SF-295 CNS was greater than 100 µM each time. The TGI in the test on SK-MEL-2 melanoma, in the test on SK-MEL-28 melanoma, in the test with SK-MEL-5 melanoma, in the test with SR leukemia and in the test on UACC-62 melanoma was greater than 100 µM throughout.

On to `O=C1c2ccccc2C(=O)N1C/C=N/NS(=O)(=O)c1ccc(Br)cc1`, for which the TGI in the test on EKVX NSCLC, in the test with HCT-15 colon, in the test on HL-60(TB) leukemia, with KM12 colon, in the test on NCI-H460 lung and in the test on SF-295 CNS was greater than 100 µM each time. Also, the TGI in the test with SK-MEL-2 melanoma, in the test on SK-MEL-28 melanoma, in the test with SK-MEL-5 melanoma, in the test with SR leukemia and in the test on UACC-62 melanoma was greater than 100 µM throughout.

Take `CCOC(=O)C(Cc1ccc(O)cc1)Nc1nc(=O)c2c(=O)oc(Cl)cc2o1` (configuration not stated): the TGI was 25.5 µM with EKVX NSCLC; 37.3 µM in the test with HCT-15 colon; 13.5 µM in the test with HL-60(TB) leukemia; 22.5 µM in the test with KM12 colon; greater than 57.2 µM with NCI-H460 lung; 29.8 µM in the test with SF-295 CNS. Moreover, the TGI in the test with SK-MEL-2 melanoma is 34.3 µM; in the test with SK-MEL-28 melanoma, 21 µM; in the test on SK-MEL-5 melanoma it was greater than 49 µM; in the test with SR leukemia, 7.53 µM; in the test on UACC-62 melanoma, 28.5 µM.

Take `Cc1cc(C)nc(NC(P(=O)(O)O)P(=O)(O)O)n1`: the TGI with EKVX NSCLC, in the test on HCT-15 colon, in the test with KM12 colon, in the test on MDA-N, in the test with NCI-H460 lung and in the test on SF-295 CNS was greater than 100 µM each time. For the same compound, the TGI in the test on SK-MEL-5 melanoma and in the test on UACC-62 melanoma was greater than 100 µM in each case.

In the case of `C[n+]1c2ccccc2c(NC(CCCN=C(N)N)C(=O)O)c2ccccc21` (configuration not stated), the TGI in the test with EKVX NSCLC, with HCT-15 colon, with HL-60(TB) leukemia, with KM12 colon, in the test on NCI-H460 lung and with SF-295 CNS was greater than 100 µM throughout. The TGI with SK-MEL-2 melanoma, with SK-MEL-5 melanoma, in the test on SR leukemia and in the test with UACC-62 melanoma was greater than 100 µM throughout.

Consider `COc1ccc2nc3cc(Cl)ccc3c(Sc3ccc(NC(C)=O)cc3)c2c1`, for which the TGI in the test on EKVX NSCLC was greater than 23.8 µM; in the test on HL-60(TB) leukemia, 52 µM; with KM12 colon, greater than 35.2 µM; with NCI-H460 lung, greater than 47 µM; with SF-295 CNS, greater than 51.2 µM; in the test on SK-MEL-2 melanoma it was greater than 26.4 µM. The TGI is 38.7 µM in the test with SK-MEL-28 melanoma, greater than 45.5 µM with SK-MEL-5 melanoma, 16.1 µM in the test with SR leukemia and greater than 42.1 µM in the test on UACC-62 melanoma.

With `O=C(Cn1c2ccc(Br)cc2c2nc3ccccc3nc21)NNC(=S)NC1CCCCC1`, the TGI in the test with EKVX NSCLC was found to be 43.1 µM; in the test on HCT-15 colon, 25.4 µM; with KM12 colon it was 48.2 µM; in the test with MDA-N it was 30.4 µM; in the test on NCI-H460 lung, 24.9 µM; with SF-295 CNS, 25.7 µM. The TGI in the test with SK-MEL-2 melanoma was found to be 40.4 µM; with SK-MEL-28 melanoma, 31.6 µM; in the test on SK-MEL-5 melanoma, 28 µM; in the test on UACC-62 melanoma, 43.2 µM.

As to `COc1ccc(CNc2nc(NC3CCCCC3)nc(NC3CCCCC3)n2)cc1`, the TGI in the test with EKVX NSCLC is greater than 100 µM; with HCT-15 colon it was 5.5 µM; with HL-60(TB) leukemia, greater than 100 µM; in the test with KM12 colon, 3.84 µM; with NCI-H460 lung, 15.6 µM; in the test with SF-295 CNS it was greater than 100 µM. Further, the TGI is 80.3 µM in the test on SK-MEL-2 melanoma, greater than 100 µM with SK-MEL-28 melanoma, 14.4 µM in the test on SK-MEL-5 melanoma and 50.9 µM with UACC-62 melanoma.

Regarding `COc1cc(-c2nnc3n2NC=C(C(=O)O)S3)cc(OC)c1OC`, the TGI in the test on EKVX NSCLC is greater than 100 µM; with HCT-15 colon, greater than 67.5 µM; with HL-60(TB) leukemia it was greater than 73.4 µM; with KM12 colon, greater than 100 µM; in the test with NCI-H460 lung, greater than 100 µM; in the test on SF-295 CNS, greater than 100 µM. Moreover, the TGI with SK-MEL-2 melanoma, with SK-MEL-28 melanoma, in the test with SK-MEL-5 melanoma, with SR leukemia and in the test on UACC-62 melanoma was greater than 100 µM in each case.

On to `O=C(NCCN1CCOCC1)c1ccc(I)cc1`, for which the TGI with EKVX NSCLC, in the test with HCT-15 colon, with HL-60(TB) leukemia, in the test on NCI-H460 lung, in the test with SK-MEL-28 melanoma and in the test on SK-MEL-5 melanoma was greater than 100 µM throughout. Besides, the TGI with SR leukemia and in the test with UACC-62 melanoma was greater than 100 µM each time.

`O=C1OCC2OC(=O)c3cc(O)c(O)c(O)c3-c3c(O)c(O)c(O)c4c3C(=O)OC(C2OC(=O)c2cc(O)c(O)c(O)c2-c2c1cc(O)c(O)c2O)C1OC(=O)C2C4=C(O)C(=O)C23Oc2cc(O)c4c(c2[C@H]13)O[C@H](c1ccc(O)c(O)c1)[C@@H](O)C4` (some centres not stated): the TGI in the test with EKVX NSCLC is 42.7 µM; in the test with HCT-15 colon, 44.7 µM; in the test on HL-60(TB) leukemia, 51.8 µM; in the test on KM12 colon it was greater than 100 µM; in the test on NCI-H460 lung it was greater than 100 µM; with SF-295 CNS, 53.5 µM. For the same compound, the TGI was 64.4 µM in the test with SK-MEL-2 melanoma; greater than 100 µM in the test with SK-MEL-28 melanoma; 33.8 µM in the test on SK-MEL-5 melanoma; greater than 100 µM in the test with SR leukemia; 45.6 µM in the test on UACC-62 melanoma.

Take `c1ccc2c(c1)OCCOCCOc1ccccc1OCCO2`: the TGI with EKVX NSCLC is greater than 100 µM; in the test with HCT-15 colon, greater than 100 µM; with HL-60(TB) leukemia, 69.1 µM; with KM12 colon, greater than 100 µM; in the test with NCI-H460 lung it was greater than 100 µM; in the test with SF-295 CNS, greater than 100 µM. The TGI in the test with SK-MEL-2 melanoma, in the test on SK-MEL-28 melanoma, with SK-MEL-5 melanoma and with UACC-62 melanoma was greater than 100 µM each time.
